Reference: patent US7262301B1, “Zinc-chelating ratiometric fluorescent probes and related methods” (Northwestern University, priority 2003, dated 2007)
≈ marks a conversion by molar mass, not a printed value. Where two headings read alike, the source gives them in different places. Each block holds one compound with its values, some of them ahead of it.

Assays:
[1] = 10 μM ligand, 1 μM Zn(II), pH 7.20, 0.1 M ionic strength, 25° C.; prior art ligands, literature data; cited from earlier work
[2] = test system: mouse fibroblast LTK cell line; test: Two-photon emission ratio imaging of fixed fibroblast cells; type: cell-based
Protocol: FIG. 5. Emission ratio images of fibroblast (LTK) cells treated with Zinbo-5. (A) Brightfield transmission image; (B) ratio image of the intensities at 445 nm and 402 nm; (C) ratio image following a 30 minute treatment with 10 μM zinc sulfate and 20 μM pyrithione at pH 7.4, 25° C., followed by wash with Zinbo-5 stock; (D) ratio image of the same field after a 15 minute treatment with 1 mM TPEN.
The Zinbo-5 probe was tested in the mouse fibroblast LTK cell line. Cells were fixed, treated with a saturated solution of Zinbo-5 and then imaged with two-photon excitation (TPE) laser scanning microscopy using on Zeiss 510 LSM (upright configuration). The excitation beam produced by the femtosecond pulsed Ti:sapphire laser (Tsunami, Spectra-Physics; 8 W Millennia pump) was tuned to 710 nm, (pumping power 6.5 W with 0.5 W entering the Zeiss AOM) was passed through an LSM 510 microscope with an HFT 650 dichroic (Zeiss) and focused onto coverslip adherent fibroblasts using a 63x oil-immersion objective (Zeiss). The NLO META scan head (Zeiss) allowed data collection in 10.7 nm windows centered at 445 nm and 402 nm.
Cells were imaged in the presence of Zinbo-5 to provide the contrast of unbound dye outside of the cells (FIG. 5). After imaging, the same field of cells was treated with 10 μM zinc sulfate and 20 μM pyrithione, a zinc-selective ionophore, resulting in an anticipated increase in the intracellular ratio of emissions from 445 nm and 402 nm (FIG. 5, d-f). Finally, the intracellular ratio was made equal to that of the surrounding unbound dye by treating the same field of view with TPEN (FIG. 5, g-i).
LTK cells were grown as previously published (Nasir, M. S., et al., JBIC (1999) 4:775-783). Cells grown on coverslips were fixed with 4% formaldehyde on ice for 20 minutes and washed with cold PBS before staining. […] Coverslips were attached to slides using Secure-Seal spacers (Molecular Probes) with the saturated staining solution in the spacer well. […]

[3] = Binding constant determination: fluorescence intensity ratio (or UV absorbance) in Zn2+/EGTA buffered solutions
Protocol: FIG. 2. (A) Emission spectra of Zinbo-5 with the excitation at 356 nm in Zn^2+/EGTA buffered system (50 mM HEPES, pH 7.20, 0.1 M KNO3; 10 mM EGTA, 1-9 mM zinc sulfate) at 0, 0.14, 0.29, 0.66, 1.1, 1.8, 2.6, 4.0, 6.1, and 11 nM free Zn^2+, respectively. (B) Plots of the fluorescence intensity ratio between 395 nm and 443 nm (I443/I395) with a best curve for a dissociation constant of 2.1±0.1×10^−9.
FIG. 3. UV determination of dissociation constant, Kd: (A) Absorption ratio between at 340 nm and at 374 nm (Abs374/Abs340) in Zn^2+-buffered solution (50 mM HEPES, pH 7.20, 0.1 M KNO3; […], 1-9 mM zinc sulfate).
A series of HEPES (2-[4-(2-hydoroxyethyl)-1-piperazinyl]ethanesulfonic acid) buffer solutions (50 mM, pH 7.20, 0.1 M KNO3) containing various amounts of ZnSO4 (0˜9.5 mM) and 10 mM of EGTA (ethylenebis(oxyethylenenitrilo) tetraacetic acid) were prepared. The concentration of free Zn^2+ was calculated with [EGTA]total, [Zn^2+]total, and K′Zn-EGTA, the apparent binding constant at a given pH and ionic strength. […]
The ratio between 395 nm and 443 nm intensities in the emission spectrum of each solution was measured with the excitation wavelength at 356 nm and was fitted to the following equation (Eq. 2). […]

[4] = Metal ion selectivity of fluorescence (ratio I443/I395) in biological buffers
Protocol: FIG. 4. Metal ion selectivity of Zinbo-5. Bars are a presentation of the fluorescence ratio I443/I395. Heavy metals (20 μM) and Na^+, K^+, Ca^2+, Mg^2+ (5 mM) were added to 1.5 μM Zinbo-5 in the presence of 10 μM EDTA.

[5] = Maximal water solubility (saturated staining solution); type: physicochemical; settings: PBS (saturated staining solution), PBS with DMSO stock, on ice
[6] = Calculated pZn values (-log[Zn]free) for a ligand/zinc solution; type: binding
From the text: […] […] The Zn^2+ affinity of Zinbo-5 is much higher than that of di(2-picolyl)amine (DPA), indicating—without limitation—that the phenolate oxygen and benoxazole nitrogen are likely chelating the metal as the third and fourth ligands.

[7] = heavy metals 20 μM, 1.5 μM probe, 10 μM EDTA

Compound: O=C(O)CN(CCN(CC(=O)O)CC(=O)O)CC(=O)O [EDTA]
Calculated pZn (-log[Zn]free) [1]: 14.3

Compound: O=C(O)CN(CCOCCOCCN(CC(=O)O)CC(=O)O)CC(=O)O [EGTA, ethylenebis(oxyethylenenitrilo) tetraacetic acid]
Calculated pZn (-log[Zn]free) [1]: 9.5

Compound: O=C(O)CN(CC(=O)O)CC(=O)O [NTA]
Calculated pZn (-log[Zn]free) [1]: 9.0

Compound: c1ccc(CN(CCN(Cc2ccccn2)Cc2ccccn2)Cc2ccccn2)nc1 [TPEN, N,N,N′,N′-tetrakis (2-pyridylmethyl) ethylenediamine, reference compound]
decrease of the intracellular emission ratio ([2]; LTK cells stained with Zinbo-5, zinc loaded, then excess TPEN (1 mM, 15 minute)): 30% | Calculated pZn (-log[Zn]free) [1]: 16.0

cell permeability [2]: cell permeable | Zn^2+ affinity compared with di(2-picolyl)amine (DPA) [3]: much higher | Kd ([3]; pH 7.20, fluorescence intensity ratio between 395 nm and 443 nm against log[Zn2+]free, read-out: apparent dissociation constant (Kd) for Zn^2+): 2.2 ± 0.1 nM | solubility [5]: 1.5 µM (≈ 0.587 µg/mL)
Compound: COc1cc(O)c(-c2nc3c(CNCc4ccccn4)cccc3o2)cc1OC [Zinbo-5, 2-(4,5-dimethoxy-2-hydroxyphenyl)-4-(2-pyridlmethyl)aminomethylbenzoxazole]
average intracellular increase in the emission ratio (445 nm/402 nm) ([2]; LTK cells after 10 μM zinc sulfate and 20 μM pyrithione): ca. 15% | fluorescence response to Mn^2+, Co^2+, Ni^2+, Fe^+ and Cu^2+ [4, 7]: quenched the fluorescence | fluorescence response to Zn^2+ and Cd^2+ [4, 7]: induced an emission shift | fluorescence response to Na^+, K^+, Ca^2+ and Mg^2+ ([4]; metal concentrations as high as 5 mM): no fluorescent response | Calculated pZn (-log[Zn]free) ([6]; 10 μM ligand, 1 μM Zn(II), pH 7.20, 0.1 M ionic strength, 25° C., the patent's own probe): 9.3 | pZn value (-log[Zn^2+]) ([6]; aqueous solution containing 10 µM ligand and 1 µM zinc ion at pH 7.20 and 0.1 M ionic strength): 9.3

Compound: O=C1OC2(c3ccccc31)c1cc(Cl)c(O)c(CN(Cc3ccccn3)Cc3ccccn3)c1Oc1c2cc(Cl)c(O)c1CN(Cc1ccccn1)Cc1ccccn1 [Zinpyr-1]
Calculated pZn (-log[Zn]free) [1]: 10.1

Compound: Cc1ccc(S(=O)(=O)Nc2cc(OCC(=O)O)cc3ccc(C)nc23)cc1 [Zinquin acid]
Calculated pZn (-log[Zn]free) [1]: 9.3

Compound: O=C(O)c1cc(NCCN(Cc2ccccn2)Cc2ccccn2)ccc1-c1c2ccc(=O)cc-2oc2cc(O)ccc12 [ZnAF-1]
Calculated pZn (-log[Zn]free) [1]: 10.1

Compound: carbonic anhydrase
Calculated pZn (-log[Zn]free) [1]: 12.4
